ΔTm and IC50 data for four compounds are collected here from ChEMBL document CHEMBL4270552, “4-(Phenoxy) and 4-(benzyloxy)benzamides as potent and selective inhibitors of mono-ADP-ribosyltransferase PARP10/ARTD10” (Eur J Med Chem, 2018).

Assay [1] has as its target Zinc finger CCCH-type antiviral protein 1 (Homo sapiens) (UniProt Q7Z2W4).
Description: Stabilization of human ARTD13 expressed in Escherichia coli assessed as change in melting temperature at 100 uM by SYPRO Orange-dye based differential scanning fluorimetric method
The target in assay [2] is T1, Protein mono-ADP-ribosyltransferase PARP12 (Homo sapiens, UniProt Q9H0J9).
T1 sequence (Q9H0J9 whole entry): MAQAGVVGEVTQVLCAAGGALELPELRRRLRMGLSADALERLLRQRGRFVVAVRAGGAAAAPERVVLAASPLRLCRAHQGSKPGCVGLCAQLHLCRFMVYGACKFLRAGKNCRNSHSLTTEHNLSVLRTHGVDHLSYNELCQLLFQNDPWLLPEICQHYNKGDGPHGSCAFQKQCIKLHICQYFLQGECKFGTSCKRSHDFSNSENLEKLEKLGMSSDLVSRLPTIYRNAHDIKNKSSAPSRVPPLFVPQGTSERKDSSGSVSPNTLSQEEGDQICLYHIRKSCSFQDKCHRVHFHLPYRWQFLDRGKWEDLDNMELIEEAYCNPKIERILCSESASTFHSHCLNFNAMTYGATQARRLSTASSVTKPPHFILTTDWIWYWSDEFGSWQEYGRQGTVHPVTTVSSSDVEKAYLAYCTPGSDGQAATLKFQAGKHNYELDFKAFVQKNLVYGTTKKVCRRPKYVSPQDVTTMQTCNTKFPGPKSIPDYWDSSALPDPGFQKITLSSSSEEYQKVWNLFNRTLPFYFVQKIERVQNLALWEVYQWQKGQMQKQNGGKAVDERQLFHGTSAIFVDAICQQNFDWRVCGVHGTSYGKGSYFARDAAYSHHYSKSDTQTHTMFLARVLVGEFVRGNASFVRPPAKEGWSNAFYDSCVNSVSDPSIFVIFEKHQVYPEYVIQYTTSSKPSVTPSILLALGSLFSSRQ
As to the kind of experiment: Inhibition of N-terminal His-tagged thioredoxin-fused human ARTD12 (469 to 701 residues) expressed in Escherichia coli Rosetta2 (DE3) after 20 hrs in presence of NAD+.

In assay [3] the target is Poly [ADP-ribose] polymerase 1 (Homo sapiens, UniProt P09874). As to the kind of experiment: Inhibition of N-terminal His-tagged human ARTD1 (1 to 1014 residues) expressed in Escherichia coli Rosetta2 (DE3) using activated DNA as substrate after 1.5 hrs in presence of NAD+.
In assay [4] the target is Protein mono-ADP-ribosyltransferase PARP9 (Homo sapiens) (UniProt Q8IXQ6).
Description: Stabilization of human ARTD9 expressed in Escherichia coli assessed as change in melting temperature at 100 uM by SYPRO Orange-dye based differential scanning fluorimetric method
Assay [5] addresses Protein mono-ADP-ribosyltransferase PARP4 (Homo sapiens, UniProt Q9UKK3). Put plainly: Inhibition of N-terminal His-tagged human ARTD4 (250 to 565 residues) expressed in Escherichia coli Rosetta2 (DE3) using TCEP as substrate after 2.5 hrs in presence of NAD+.
The target in assay [6] is T2, Protein mono-ADP-ribosyltransferase PARP15 (Homo sapiens, UniProt Q460N3).
T2 sequence (Q460N3 whole entry): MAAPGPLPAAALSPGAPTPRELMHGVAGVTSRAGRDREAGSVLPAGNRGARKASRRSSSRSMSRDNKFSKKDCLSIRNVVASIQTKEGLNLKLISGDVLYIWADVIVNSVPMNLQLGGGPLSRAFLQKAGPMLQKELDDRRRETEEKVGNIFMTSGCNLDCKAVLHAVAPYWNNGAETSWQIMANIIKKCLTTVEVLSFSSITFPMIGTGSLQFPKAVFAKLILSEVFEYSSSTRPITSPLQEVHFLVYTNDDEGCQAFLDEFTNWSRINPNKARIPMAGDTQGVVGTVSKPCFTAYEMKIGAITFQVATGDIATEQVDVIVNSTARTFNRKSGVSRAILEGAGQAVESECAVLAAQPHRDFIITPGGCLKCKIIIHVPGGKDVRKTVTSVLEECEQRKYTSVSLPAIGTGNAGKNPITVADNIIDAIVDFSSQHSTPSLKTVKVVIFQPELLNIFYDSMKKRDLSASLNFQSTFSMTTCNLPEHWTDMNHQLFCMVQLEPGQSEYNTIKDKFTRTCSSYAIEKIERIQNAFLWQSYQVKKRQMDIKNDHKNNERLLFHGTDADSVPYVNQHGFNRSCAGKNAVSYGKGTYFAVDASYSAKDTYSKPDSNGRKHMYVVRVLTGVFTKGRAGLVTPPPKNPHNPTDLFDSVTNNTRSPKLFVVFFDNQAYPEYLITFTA
Put plainly: Inhibition of N-terminal His-tagged human ARTD7 (482 to 678 residues) expressed in Escherichia coli Rosetta2 (DE3) using SRPK2 as substrate after 3 hrs in presence of NAD+.

Assay [7] concerns the target Poly [ADP-ribose] polymerase 2 (Homo sapiens, UniProt Q9UGN5). Put plainly: Inhibition of N-terminal His-tagged thioredoxin-fused human ARTD2 (1 to 583 residues) expressed in Escherichia coli Rosetta2 (DE3) using activated DNA as substrate after 1.5 hrs in presence of NAD+.

Molecules are shown by their SMILES.

Chain of Poly [ADP-ribose] polymerase 1 (P09874 whole entry, the tested form may be a part): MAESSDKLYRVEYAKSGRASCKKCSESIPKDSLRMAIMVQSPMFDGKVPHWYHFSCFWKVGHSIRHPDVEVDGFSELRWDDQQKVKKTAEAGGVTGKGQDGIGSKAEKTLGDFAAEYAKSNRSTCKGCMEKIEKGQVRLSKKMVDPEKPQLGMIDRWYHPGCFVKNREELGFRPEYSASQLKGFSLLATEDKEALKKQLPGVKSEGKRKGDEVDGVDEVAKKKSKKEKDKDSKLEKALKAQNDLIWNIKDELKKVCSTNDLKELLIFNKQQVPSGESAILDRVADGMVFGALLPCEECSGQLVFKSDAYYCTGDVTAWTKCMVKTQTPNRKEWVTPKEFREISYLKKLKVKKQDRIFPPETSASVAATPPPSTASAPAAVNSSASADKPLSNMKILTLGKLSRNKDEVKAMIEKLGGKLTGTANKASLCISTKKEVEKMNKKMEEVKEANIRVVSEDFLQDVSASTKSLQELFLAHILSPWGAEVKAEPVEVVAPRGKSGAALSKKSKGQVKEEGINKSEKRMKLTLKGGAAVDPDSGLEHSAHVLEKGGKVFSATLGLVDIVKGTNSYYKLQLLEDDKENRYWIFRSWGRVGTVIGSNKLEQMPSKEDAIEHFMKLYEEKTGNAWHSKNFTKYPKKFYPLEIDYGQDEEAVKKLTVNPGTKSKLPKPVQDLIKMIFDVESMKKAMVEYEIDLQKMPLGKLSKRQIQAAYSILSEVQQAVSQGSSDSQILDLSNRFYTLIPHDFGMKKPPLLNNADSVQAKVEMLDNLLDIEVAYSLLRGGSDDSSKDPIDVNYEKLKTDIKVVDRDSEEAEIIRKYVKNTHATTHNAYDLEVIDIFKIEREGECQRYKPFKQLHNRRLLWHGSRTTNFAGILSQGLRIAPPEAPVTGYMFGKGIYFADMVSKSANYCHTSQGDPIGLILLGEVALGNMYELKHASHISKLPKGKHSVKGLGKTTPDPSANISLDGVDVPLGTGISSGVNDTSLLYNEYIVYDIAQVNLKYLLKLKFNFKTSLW
Chain of Zinc finger CCCH-type antiviral protein 1 (Homo sapiens) (Q7Z2W4 whole entry): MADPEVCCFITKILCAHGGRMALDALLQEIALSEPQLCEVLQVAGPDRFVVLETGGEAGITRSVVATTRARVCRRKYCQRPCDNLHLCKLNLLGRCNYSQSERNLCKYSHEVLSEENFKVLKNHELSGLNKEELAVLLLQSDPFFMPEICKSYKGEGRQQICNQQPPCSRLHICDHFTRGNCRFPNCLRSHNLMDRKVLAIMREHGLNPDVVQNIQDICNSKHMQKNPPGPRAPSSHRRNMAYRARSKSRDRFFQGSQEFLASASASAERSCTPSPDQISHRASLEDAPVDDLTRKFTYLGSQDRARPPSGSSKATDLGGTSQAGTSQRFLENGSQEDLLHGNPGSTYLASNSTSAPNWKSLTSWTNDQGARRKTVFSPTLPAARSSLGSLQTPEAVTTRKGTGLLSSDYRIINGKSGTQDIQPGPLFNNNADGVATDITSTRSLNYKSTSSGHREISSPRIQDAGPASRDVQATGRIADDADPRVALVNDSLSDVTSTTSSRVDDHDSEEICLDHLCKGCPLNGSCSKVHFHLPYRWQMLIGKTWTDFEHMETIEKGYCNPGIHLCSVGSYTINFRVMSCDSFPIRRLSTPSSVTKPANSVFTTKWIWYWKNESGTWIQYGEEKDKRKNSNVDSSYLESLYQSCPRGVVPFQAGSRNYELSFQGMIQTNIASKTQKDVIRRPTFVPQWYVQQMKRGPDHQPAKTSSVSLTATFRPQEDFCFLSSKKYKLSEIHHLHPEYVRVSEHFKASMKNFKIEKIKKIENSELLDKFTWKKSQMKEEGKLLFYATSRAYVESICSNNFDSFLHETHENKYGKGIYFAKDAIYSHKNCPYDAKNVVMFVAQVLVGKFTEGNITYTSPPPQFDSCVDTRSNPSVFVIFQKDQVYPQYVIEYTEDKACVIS
Chain of Poly [ADP-ribose] polymerase 2 (Q9UGN5 whole entry, the tested form may be a part): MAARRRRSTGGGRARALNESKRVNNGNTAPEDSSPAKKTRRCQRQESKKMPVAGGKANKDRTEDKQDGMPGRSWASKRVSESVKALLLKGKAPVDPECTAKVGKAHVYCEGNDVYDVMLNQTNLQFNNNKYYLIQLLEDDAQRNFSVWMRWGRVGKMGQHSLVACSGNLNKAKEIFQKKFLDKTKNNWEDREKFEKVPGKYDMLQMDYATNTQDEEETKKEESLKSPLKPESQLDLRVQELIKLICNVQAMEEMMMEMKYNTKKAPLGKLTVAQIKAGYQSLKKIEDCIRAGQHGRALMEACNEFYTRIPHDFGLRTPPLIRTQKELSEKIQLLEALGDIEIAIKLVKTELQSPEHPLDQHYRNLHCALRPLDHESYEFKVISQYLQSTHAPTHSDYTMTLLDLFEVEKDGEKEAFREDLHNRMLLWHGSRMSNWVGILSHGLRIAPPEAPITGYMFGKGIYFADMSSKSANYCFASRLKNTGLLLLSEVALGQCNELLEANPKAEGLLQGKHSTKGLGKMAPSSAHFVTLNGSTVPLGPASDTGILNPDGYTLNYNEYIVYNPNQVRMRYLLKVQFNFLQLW
Chain of Protein mono-ADP-ribosyltransferase PARP4 (Q9UKK3 whole entry, the tested form may be a part): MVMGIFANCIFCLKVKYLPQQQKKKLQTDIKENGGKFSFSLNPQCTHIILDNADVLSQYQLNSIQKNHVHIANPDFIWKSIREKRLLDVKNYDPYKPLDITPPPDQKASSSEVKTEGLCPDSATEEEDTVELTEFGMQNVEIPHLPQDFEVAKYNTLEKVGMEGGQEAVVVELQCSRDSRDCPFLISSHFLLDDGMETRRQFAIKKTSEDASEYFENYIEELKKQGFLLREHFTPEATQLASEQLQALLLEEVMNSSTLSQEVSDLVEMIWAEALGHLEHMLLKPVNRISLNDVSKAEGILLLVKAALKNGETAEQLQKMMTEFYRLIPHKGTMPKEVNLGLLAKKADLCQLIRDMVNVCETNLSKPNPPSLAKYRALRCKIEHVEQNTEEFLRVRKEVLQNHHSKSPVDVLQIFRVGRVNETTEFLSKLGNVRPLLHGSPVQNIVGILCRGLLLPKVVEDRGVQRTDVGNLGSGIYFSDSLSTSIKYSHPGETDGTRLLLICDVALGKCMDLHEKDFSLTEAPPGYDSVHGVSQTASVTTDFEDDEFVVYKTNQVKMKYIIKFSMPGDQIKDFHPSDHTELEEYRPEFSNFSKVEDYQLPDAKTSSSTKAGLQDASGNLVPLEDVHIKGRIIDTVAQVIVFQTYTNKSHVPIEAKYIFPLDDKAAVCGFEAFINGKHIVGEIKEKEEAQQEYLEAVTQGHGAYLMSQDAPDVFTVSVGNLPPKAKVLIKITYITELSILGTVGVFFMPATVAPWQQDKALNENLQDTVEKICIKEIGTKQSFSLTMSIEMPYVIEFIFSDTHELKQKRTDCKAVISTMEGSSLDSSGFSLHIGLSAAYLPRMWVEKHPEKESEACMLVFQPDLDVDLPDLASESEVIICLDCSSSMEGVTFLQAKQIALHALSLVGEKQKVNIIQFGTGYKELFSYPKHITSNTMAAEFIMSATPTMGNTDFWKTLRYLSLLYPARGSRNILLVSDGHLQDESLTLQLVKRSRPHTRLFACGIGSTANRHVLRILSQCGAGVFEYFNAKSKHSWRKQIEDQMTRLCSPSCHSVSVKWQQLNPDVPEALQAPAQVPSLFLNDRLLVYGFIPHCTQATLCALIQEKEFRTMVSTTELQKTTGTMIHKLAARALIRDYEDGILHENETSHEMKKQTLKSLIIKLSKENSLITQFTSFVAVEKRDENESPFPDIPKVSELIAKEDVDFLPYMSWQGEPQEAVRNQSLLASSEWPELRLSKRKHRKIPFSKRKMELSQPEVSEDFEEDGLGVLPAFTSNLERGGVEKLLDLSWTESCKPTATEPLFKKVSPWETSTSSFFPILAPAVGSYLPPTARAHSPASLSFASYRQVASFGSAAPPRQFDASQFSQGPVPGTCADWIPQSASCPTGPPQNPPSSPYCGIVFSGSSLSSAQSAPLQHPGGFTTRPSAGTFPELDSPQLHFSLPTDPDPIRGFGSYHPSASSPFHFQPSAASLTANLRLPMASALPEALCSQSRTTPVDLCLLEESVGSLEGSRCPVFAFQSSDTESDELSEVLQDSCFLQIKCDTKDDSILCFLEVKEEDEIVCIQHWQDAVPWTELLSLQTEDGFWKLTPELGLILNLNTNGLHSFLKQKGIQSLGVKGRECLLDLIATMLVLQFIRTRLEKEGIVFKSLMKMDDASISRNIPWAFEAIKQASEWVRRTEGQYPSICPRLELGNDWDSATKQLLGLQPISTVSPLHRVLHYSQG

With `NC(=O)c1ccc(Oc2ccc(C(=O)O)cc2)cc1`, the ΔTm (usually the shift of the melting midpoint relative to a reference) amounted to 0.72 °C in assay [1] and 1.2 °C in assay [4]. In addition, the IC50 (commonly the concentration at which inhibition is half-maximal) in assay [2] was above 10 µM; in assay [3], above 100 µM; in assay [5], above 100 µM; in assay [6], 2.6 µM; in assay [7], above 100 µM.

As to `NC(=O)c1ccc(OCc2ccccc2F)cc1`, the values for the ΔTm in assay [1] and in assay [4] were 0.37 °C and 0.76 °C, respectively. For the same compound, the IC50 in assay [2] is above 10 µM; in assay [3] it was above 100 µM; in assay [5], above 100 µM; in assay [6] it was 3.3 µM; in assay [7], above 100 µM.

Take `NC(=O)c1ccc(Oc2ccc(C=O)cc2)cc1`: the ΔTm in assay [1] worked out at 0.49 °C; in assay [4] it was 0.04 °C. The IC50 in assay [2] is above 10 µM; in assay [3], above 100 µM; in assay [5], above 100 µM; in assay [6], above 10 µM; in assay [7] it was above 100 µM.

For the compound `COc1ccc(C(N)=O)cc1`, the ΔTm in assay [1] was determined as 0.44 °C; in assay [4] it was 0.15 °C. For the same compound, the IC50 in assay [2] is above 10 µM; in assay [3], 57 µM; in assay [5], 65 µM; in assay [6] it was above 10 µM; in assay [7], 77 µM.
